Laboratory results: US20210308101A1, “METHODS OF TREATING FIBROMYALGIA” (Aptinyx Inc., priority 2019, published 2021)

Experiments:
Type in all cases: in vivo, human
[1] = test system: subjects with fibromyalgia; assay: PROMIS Sleep Disturbance short form; conditions: not statistically significant
Text: As used herein, the “PROMIS Sleep Disturbance” short form is Patient Reported Outcomes Measurement Information System Sleep Disturbance—Short Form. The PROMIS Sleep Disturbance short form version 1.0 8b is an 8-item instrument that assesses sleep disturbance in subjects 18 years and older. All 8 questions are based on a 5-point numerical rating scale/Likert scale ranging from 1 to 5 with different categorical responses. Lower scores represent a better quality of life. The total score was calculated by taking the sum of all 8 questions and ranged from 8 to 40. If at least 4 questions were answered, the total score was imputed if missing responses were present. The total score was multiplied by 8/(number of questions answered) and rounded off to the nearest whole number. Otherwise, the total score was set to missing.
The PROMIS Sleep Disturbance short form assessment was collected and analyzed at visits Screening, Day 1, Week 2, Week 4, Week 6, and Follow-up (Week 7). The observed total score, changes from baseline, and changes from treatment periods were summarized using descriptive statistics. Additionally, the treatment group comparisons were analyzed using the paired t-test and nonparametric Wilcoxon signed-rank test. All PROMIS Sleep Disturbance short form data collected and the calculated total score at each visit were presented in a subject listing.

[2] = test system: subjects with fibromyalgia; assay: Fibromyalgia Survey Questionnaire (Widespread Pain Index, Symptom Severity Score)
Text: As used herein, “FSQ” is Fibromyalgia Survey Questionnaire, which is a patient-reported tool to assess the 2011 ACR Fibromyalgia criteria circumventing the requirement of physician assessment. The criteria review the widespread pain index, and somatic symptoms. The somatic symptoms of fatigue, waking unrefreshed, and cognitive symptoms were scored from 0 (no problem) to 3 (severe, pervasive, continuous, life disturbing problems). Symptoms of headaches, pain or cramps in the lower abdomen, and depression were given a score of 1, if they had occurred in the past 3 months.
As used herein, “WPI” is the Widespread Pain Index, which is a score comprised of 19 areas where subjects experienced pain within the last week with a yes or no response for each area. Each individual yes response has a numeric value of 1 and 0 is assigned to each no response. The WPI score had values ranging from 0 to 19. If any of the individual area responses were missing, the WPI score was not calculated. Here are the 19 areas that were assessed: Left Jaw, Right Jaw, Left Shoulder, Right Shoulder, Right Upper Arm, Left Upper Arm, Right Lower Arm, Left Lower Arm, Neck, Upper Back, Chest, Abdomen, Lower Back, Right Hip, Left Hip, Right Upper Leg, Left Upper Leg, Right Lower Leg, and Left Lower Leg.
As used herein, “SS” is the Symptom Severity Score, based on 3 questions each having a numeric score ranging from 0 to 3 and an additional 3 questions each having a numeric score of 0 or 1. If all 6 questions were given a numeric score, then the Symptom Severity Score ranged from 0 to 12. If any of the individual scores were missing, the Symptom Severity Score was not calculated.
As used herein, “ACR Fibromyalgia Criteria” is 2011 American College of Rheumatology Fibromyalgia Criteria, and includes FSQ, WPI, and SS. These assessments were analyzed at Day 1, Week 2, Week 4, Week 6, and Follow-up (Week 7). Both the observed Widespread Pain Index score and Symptom Severity Score, changes from baseline, and changes from treatment periods were summarized using descriptive statistics. Additionally, the treatment group comparisons were analyzed using the paired t-test and nonparametric Wilcoxon signed-rank test. A frequency distribution table was presented for yes/no responses for these categories: • Widespread Pain Index ≥7 and Symptom Severity Score >5 • Widespread Pain Index is 3 to 6 and the Symptom Severity Score is >9

[3] = test system: subjects with fibromyalgia; assay: QST: MAST pressure pain sensitivity at the thumbnail
Text: The multi-modal automated sensory testing (MAST) system was used to measure localized pressure sensitivity at an asymptomatic, neutral body site, the thumbnail. The MAST system is a nonsignificant-risk investigational device that applies a computer-controlled mechanical stimulation at precisely controlled intensity levels and durations. The validity in the measurement of centrally-mediated pain sensitivity has been discussed extensively. The MAST system delivered an ascending series of computer-controlled, 5-second pressures at 20-second intervals (with 20% jitter) to the subject's thumbnail bed, beginning at 0.25 to 0.5 kg/cm^2 and increasing in steps of 0.25 to 0.50 kg/cm^2. Pain intensity was rated after each pressure on a 0 to 100 NRS. Testing was terminated when the first of 3 possible stop conditions were met: 1) subject reached her personal pain tolerance and requested to stop the test, 2) subject reported a pain intensity rating of >80, or 3) the maximum pressure of 10 kg/cm^2 was delivered. A regression model was used fit the stimulus-response data obtained from this procedure and interpolate Pain50, defined as the pressure intensity that evokes a moderate level of suprathreshold pressure pain (i.e., 50/100). Additional derived variables included: 1) Pressure pain threshold, defined as the first pressure in a series of at least 2 consecutive pressures that elicited a NRS pain rating >0; 2) slope of the stimulus-response function as a measure of the rate of pain increase; and 3) pressure pain tolerance, defined as the last pressure recorded in the stimulus response profile. These variables were used to determine the effect of drug and placebo treatments on pain sensitivity.
QST data were analyzed at the University of Michigan CPFRC. Dependent variables were the MAST derived outcomes (Pain50, pressure pain threshold, pain tolerance, and pain ratings at 2 kg/cm2), algometry-derived pressure pain thresholds (mean of three trials) at each anatomical site, average cuff intensity ratings (mean of ratings at all stimulus levels during the ascending or random sequences), and average visual task unpleasantness and brightness intensity ratings (mean of ratings at all stimulus levels). Practice data were not analyzed. Overall pain intensity and unpleasantness NRS scores as well as stimulus response curves for each test were assessed during post hoc analyses. Data points displaying measurement artefacts, including device malfunction or user error, were set to missing. Single subject QST variables were analyzed using paired t-tests and/or nonparametric Wilcoxon signed-rank tests in SPSS or R.

[4] = Week 2 (placebo) to Week 4 (NYX-2925 20 mg), not statistically significant

**Q.** Which results are given for `CC(C)C(=O)N1CCC[C@]12CN([C@H](C(N)=O)[C@@H](C)O)C2=O` [NYX-2925, (2S, 3R)-3-hydroxy-2-((R)-5-isobutyryl-1-oxo-2,5-diazaspiro[3.4]octan-2-yl)butanamide]?
**A.** PROMIS Sleep Disturbance short form score, mean change ([1]; Week 2 (placebo) to Week 4 (NYX-2925 20 mg)): −0.9; PROMIS Sleep Disturbance short form score, mean change ([1]; Week 2 (placebo) to Week 6 (NYX-2925 200 mg)): −1.6; Symptom Severity score, mean change [2, 4]: −0.3; Widespread Pain Index, mean change [2, 4]: 0.0; Widespread Pain Index, mean change ([2]; Week 2 (placebo) to Week 6 (NYX-2925 200 mg), not statistically significant): −1.3; Symptom Severity score, mean change ([2]; Week 2 (placebo) to Week 6 (NYX-2925 200 mg), statistically significant): −0.9; MAST Pain50 threshold ([3]; NYX-2925 20 mg relative to baseline, p=0.079): marginal decrease in threshold; pain thresholds of the MAST test ([3]; NYX-2925 200 mg): not significantly altered; rating of pain unpleasantness evoked by MAST testing ([3]; NYX-2925 200 mg, baseline 50.00±24.24, p=0.038): 42.14±19.34; rating of overall pain intensity evoked by MAST testing ([3]; NYX-2925 200 mg, baseline 51.43±15.01, p=0.035): 44.76±12.19 NRS units
